According to patent US10138275B2, “Crystalline powder of cyclic peptide compound, preparation method for same, and uses thereof” (SHANGHAI TECHWELL BIOPHARMACEUTICAL CO., LTD, priority 2014, dated 2018):
Starred links: 1 amine or outer side, 2 acyl side, 3 side chain; linkers in the order of their positions; H or OH if unused. Positions of bridges follow the written chain, without caps; N, C: chain ends. Non-standard residues stand in square brackets, D forms with d. Residues, ends and D or L forms follow the SMILES beside them. *: point of attachment. hTyr(3S-OH,4S-OH,3'-OSO3H) = N[C@H](C(=O)O)[C@H](O)[C@@H](O)c1ccc(O)c(OS(=O)(=O)O)c1; Orn(4R-OH,5R-OH) = O=C([C@H](C[C@@H](O)[C@@H](O)N[*:3])N[*:1])[*:2]; Pro(3S-OH,4S-Me) = C[C@H]1CN[C@H](C(=O)O)[C@H]1O; X1 = CCCCCOc1ccc(-c2cc(-c3ccc(C(=O)*)cc3)no2)cc1; Gln(3R-OH) = NC(=O)C[C@@H](O)[C@H](N)C(=O)O; Hyp = O=C(O)[C@@H]1C[C@@H](O)CN1

Assays:
[1] = Ohigashi et al. 2006, cited from earlier work
[2] = Ratio of dry weight to wet weight (Dry/Wet) of filtered solids; assay type: physicochemical; settings: wet solids weighed after filtration, before drying
Source text: As used herein, the term “Dry/Wet” and “ratio of dry weight to wet weight” can be used interchangeably, both of which refer to the ratio of the weight of a compound without solvent(s) to the weight of the compound with solvent(s). In the present invention, wet weight of crystals is obtained by filtering the crystallized solids until no noticeable droplet outflows and weighing the solids.

[3] = Filtration through a Buchner funnel until no noticeable droplet outflowed; assay type: physicochemical
Source text: In this example, the precipitated solids from Examples 2-10 and Comparative Examples 1-3 were filtered through a Buchner funnel until no noticeable droplet outflowed, and the filtration processes were compared.

[4] = Vacuum-drying at 25° C. with a water system until no organic solvent detected by GC; purity by HPLC; assay type: physicochemical; settings: for time Needed (for drying): 25° C., vacuum-drying with a water system until no organic solvent detected by GC; for Purity before drying / Purity after drying: HPLC; for Purity before drying: 5 g of solids; for Purity after drying: vacuum-dried at 25° C. with a water system until no organic solvent detected by GC
Source text: High performance liquid chromatography (HPLC) is a common method for determining the purity of a compound, wherein a liquid is used as the mobile phase and a high-pressure transfusion system is used for pumping the mobile phase, such as single solvents with different polarities, a mixture of solvents at different proportions, or buffers, into a column packed with a stationary phase. Each component is separated in the column, and then enters into a detector for detection, thereby analyzing a sample. In the present invention, HPLC is used for determining the purity of the compound of formula I and studying the stability of a sample. Conditions of the HPLC method are listed as follows:
Analysis Column: YMC-ODS 250×4.6 mm, 5 μm;
Mobile phase: acetonitrile:phosphate buffer (pH 3.0)=45:70;
Column temperature: 35° C.;
Diluent: aqueous phosphate buffer;
Detection wavelength: 210 nm;
Gas chromatography (GC) used to separate and measure trace impurities in a compound is an accurate, qualitative and quantitative method of analysis. In the present invention, the content of organic solvents in the crystalline powder of the compound of formula I obtained in the present invention is measured by gas chromatography (GC).
5 g of solids were prepared according to the methods of Examples 2-10 and Comparative Examples 1-3 respectively, placed at 25° C., and vacuum-dried together with a water system until no organic solvent was detected through GC. The time for drying was compared, and the purity of the sample was analyzed.

[5] = Particle size distribution (d10, d50) by Malvern particle size analyzer / laser diffraction; assay type: physicochemical; settings: after drying
Protocol: […] Wherein, d10 and d50 are means known for indicating the particle size distribution. d50 refers to a value of particle size, and the size of 50 vol/% of particles is smaller than said value. D10 refers to a value of particle size, and the size of 10 vol/% of particles is smaller than said value. The preferred method for determining d10 and d50 is laser diffraction, d50 of the crystalline powder of the compound of formula I according to the present invention is determined as 10-100 um, and d10 is determined as 1-9 um. Preferably, d50 of the crystalline powder is 20-50 um, and d10 thereof is 1-5 um. Before solid-liquid separation, d50 of the crystalline powder of the compound of formula I is 10-100 um, and d10 thereof is 1-9 um. Preferably, d50 of the crystalline powder is 20-50 um, and d10 thereof is 3-6 um.

[6] = Bulk density of powder by cylinder measurement; assay type: physicochemical; settings: after drying
Protocol: “Bulk density of powder” is a measurement standard for the relative importance of the interaction between microparticles by comparing the bulk density and tapped density of the powder. Methods for measuring bulk density of powder are known in the art; for example, it can be determined by cylinder measurement, volumetric measurement, and container measurement. Bulk density of the crystalline powder of the compound of formula I according to the present invention is determined as less than 0.7 g/mL, preferably less than 0.6 g/mL, most preferably less than 0.5 g/mL, by cylinder measurement.

Row | SMILES | content of solvent in the precipitate ([1]; amorphous precipitate before drying) | Dry/Wet of the precipitate before drying ([1]; amorphous precipitate from acetone/ethyl acetate) | ratio of dry weight to wet weight (Dry/Wet) [2] | Time for filtration [3] [min] | time Needed (for drying) [4] [h] | Purity before drying [4] [%] | Purity after drying [4] [%] | d10, particle size of the crystalline powder [5] [um] | d50, particle size of the crystalline powder [5] [um] | Bulk density [6] [g/mL]
1 | CCCCCOc1ccc(-c2cc(-c3ccc(C(=O)N[C@H]4C[C@@H](O)[C@@H](O)NC(=O)[C@@H]5[C@@H](O)[C@@H](C)CN5C(=O)[C@H]([C@H](O)CC(N)=O)NC(=O)[C@H]([C@H](O)[C@@H](O)c5ccc(O)c(OS(=O)(=O)[O-])c5)NC(=O)[C@@H]5C[C@@H](O)CN5C(=O)[C@H]([C@@H](C)O)NC4=O)cc3)no2)cc1.[Na+] [compound of formula I, 5-[(1S,2S)-2-[(3S,6S,9S,11R,15S,18S,20R,21R,24S,25S,26S)-3-[(R)-2-carbamoyl-1-hydroxyethyl]-11,20,21,25-tetrahydroxy-15-[(R)-1-hydroxyethyl]-26-methyl-2,5,8,14,17,23-hexaoxo-18-[4-[5-(4-pentoxyphenyl)isoxazol-3-yl]benzoylamino]-1,4,7,13,16,22-hexaazatricyclo[22.3.0.0.0^9,13]heptacosan-6-yl]-1,2-dihydroxyethyl]-2-hydroxy phenyl sulfate] (X1-[Orn(4R-OH,5R-OH)]T[Hyp][hTyr(3S-OH,4S-OH,3'-OSO3H)][Gln(3R-OH)][Pro(3S-OH,4S-Me)]; lactam 1-C) | about 75% | 0.25 | – | – | – | – | – | – | – | –
2 | CCCCCOc1ccc(-c2cc(-c3ccc(C(=O)N[C@H]4C[C@@H](O)[C@@H](O)NC(=O)[C@@H]5[C@@H](O)[C@@H](C)CN5C(=O)[C@H]([C@H](O)CC(N)=O)NC(=O)[C@H]([C@H](O)[C@@H](O)c5ccc(O)c(OS(=O)(=O)[O-])c5)NC(=O)[C@@H]5C[C@@H](O)CN5C(=O)[C@H]([C@@H](C)O)NC4=O)cc3)no2)cc1.[Na+] [Comparative Example 2, reference compound] (X1-[Orn(4R-OH,5R-OH)]T[Hyp][hTyr(3S-OH,4S-OH,3'-OSO3H)][Gln(3R-OH)][Pro(3S-OH,4S-Me)]; lactam 1-C) | – | – | 0.13 | 150 | 30 | 98.82 | 96.21 | – | – | –
3 | CCCCCOc1ccc(-c2cc(-c3ccc(C(=O)N[C@H]4C[C@@H](O)[C@@H](O)NC(=O)[C@@H]5[C@@H](O)[C@@H](C)CN5C(=O)[C@H]([C@H](O)CC(N)=O)NC(=O)[C@H]([C@H](O)[C@@H](O)c5ccc(O)c(OS(=O)(=O)[O-])c5)NC(=O)[C@@H]5C[C@@H](O)CN5C(=O)[C@H]([C@@H](C)O)NC4=O)cc3)no2)cc1.[Na+] [Comparative Example 3, reference compound] (X1-[Orn(4R-OH,5R-OH)]T[Hyp][hTyr(3S-OH,4S-OH,3'-OSO3H)][Gln(3R-OH)][Pro(3S-OH,4S-Me)]; lactam 1-C) | – | – | 0.1 | 300 | 32 | 98.74 | 96.17 | – | – | –
4 | CCCCCOc1ccc(-c2cc(-c3ccc(C(=O)N[C@H]4C[C@@H](O)[C@@H](O)NC(=O)[C@@H]5[C@@H](O)[C@@H](C)CN5C(=O)[C@H]([C@H](O)CC(N)=O)NC(=O)[C@H]([C@H](O)[C@@H](O)c5ccc(O)c(OS(=O)(=O)[O-])c5)NC(=O)[C@@H]5C[C@@H](O)CN5C(=O)[C@H]([C@@H](C)O)NC4=O)cc3)no2)cc1.[Na+] [Example 7] (X1-[Orn(4R-OH,5R-OH)]T[Hyp][hTyr(3S-OH,4S-OH,3'-OSO3H)][Gln(3R-OH)][Pro(3S-OH,4S-Me)]; lactam 1-C) | – | – | 0.69 | – | 9.5 | 99.65 | 99.57 | 1 | 10 | 0.6
5 | CCCCCOc1ccc(-c2cc(-c3ccc(C(=O)N[C@H]4C[C@@H](O)[C@@H](O)NC(=O)[C@@H]5[C@@H](O)[C@@H](C)CN5C(=O)[C@H]([C@H](O)CC(N)=O)NC(=O)[C@H]([C@H](O)[C@@H](O)c5ccc(O)c(OS(=O)(=O)[O-])c5)NC(=O)[C@@H]5C[C@@H](O)CN5C(=O)[C@H]([C@@H](C)O)NC4=O)cc3)no2)cc1.[Na+] [Example 8] (X1-[Orn(4R-OH,5R-OH)]T[Hyp][hTyr(3S-OH,4S-OH,3'-OSO3H)][Gln(3R-OH)][Pro(3S-OH,4S-Me)]; lactam 1-C) | – | – | 0.45 | – | 6 | 99.52 | 99.46 | 2.6 | 18.7 | 0.38
6 | CCCCCOc1ccc(-c2cc(-c3ccc(C(=O)N[C@H]4C[C@@H](O)[C@@H](O)NC(=O)[C@@H]5[C@@H](O)[C@@H](C)CN5C(=O)[C@H]([C@H](O)CC(N)=O)NC(=O)[C@H]([C@H](O)[C@@H](O)c5ccc(O)c(OS(=O)(=O)[O-])c5)NC(=O)[C@@H]5C[C@@H](O)CN5C(=O)[C@H]([C@@H](C)O)NC4=O)cc3)no2)cc1.[Na+] [Example 6] (X1-[Orn(4R-OH,5R-OH)]T[Hyp][hTyr(3S-OH,4S-OH,3'-OSO3H)][Gln(3R-OH)][Pro(3S-OH,4S-Me)]; lactam 1-C) | – | – | 0.6 | – | 8.5 | 99.61 | 99.6 | – | 48.7 | 0.49
7 | CCCCCOc1ccc(-c2cc(-c3ccc(C(=O)N[C@H]4C[C@@H](O)[C@@H](O)NC(=O)[C@@H]5[C@@H](O)[C@@H](C)CN5C(=O)[C@H]([C@H](O)CC(N)=O)NC(=O)[C@H]([C@H](O)[C@@H](O)c5ccc(O)c(OS(=O)(=O)[O-])c5)NC(=O)[C@@H]5C[C@@H](O)CN5C(=O)[C@H]([C@@H](C)O)NC4=O)cc3)no2)cc1.[Na+] [Example 4] (X1-[Orn(4R-OH,5R-OH)]T[Hyp][hTyr(3S-OH,4S-OH,3'-OSO3H)][Gln(3R-OH)][Pro(3S-OH,4S-Me)]; lactam 1-C) | – | – | 0.61 | – | 9 | 99.64 | 99.64 | 5.1 | 50 | 0.55
8 | CCCCCOc1ccc(-c2cc(-c3ccc(C(=O)N[C@H]4C[C@@H](O)[C@@H](O)NC(=O)[C@@H]5[C@@H](O)[C@@H](C)CN5C(=O)[C@H]([C@H](O)CC(N)=O)NC(=O)[C@H]([C@H](O)[C@@H](O)c5ccc(O)c(OS(=O)(=O)[O-])c5)NC(=O)[C@@H]5C[C@@H](O)CN5C(=O)[C@H]([C@@H](C)O)NC4=O)cc3)no2)cc1.[Na+] [Example 10] (X1-[Orn(4R-OH,5R-OH)]T[Hyp][hTyr(3S-OH,4S-OH,3'-OSO3H)][Gln(3R-OH)][Pro(3S-OH,4S-Me)]; lactam 1-C) | – | – | 0.63 | – | 9 | 99.5 | 99.43 | 8.3 | 100 | 0.56
